Here are results for 1 compound from ChEMBL document CHEMBL4177690, “(E)-3-(3,4,5-Trimethoxyphenyl)-1-(pyridin-4-yl)prop-2-en-1-one, a heterocyclic chalcone is a potent and selective CYP1A1 inhibitor and cancer chemopreventive agent” (Bioorg Med Chem Lett, 2017).

The target in one data set is Cytochrome P450 2C9 (Homo sapiens, UniProt P11712). In words: Inhibition of human CYP2C9 expressed in yeast microsomal membranes using 3-cyano-7-ethoxycoumarin as substrate measured after 10 mins by fluorescence assay. In kind it is ADME, cell membranes, Microsomal Membrane.
Chain of Cytochrome P450 2C9 (P11712 whole entry): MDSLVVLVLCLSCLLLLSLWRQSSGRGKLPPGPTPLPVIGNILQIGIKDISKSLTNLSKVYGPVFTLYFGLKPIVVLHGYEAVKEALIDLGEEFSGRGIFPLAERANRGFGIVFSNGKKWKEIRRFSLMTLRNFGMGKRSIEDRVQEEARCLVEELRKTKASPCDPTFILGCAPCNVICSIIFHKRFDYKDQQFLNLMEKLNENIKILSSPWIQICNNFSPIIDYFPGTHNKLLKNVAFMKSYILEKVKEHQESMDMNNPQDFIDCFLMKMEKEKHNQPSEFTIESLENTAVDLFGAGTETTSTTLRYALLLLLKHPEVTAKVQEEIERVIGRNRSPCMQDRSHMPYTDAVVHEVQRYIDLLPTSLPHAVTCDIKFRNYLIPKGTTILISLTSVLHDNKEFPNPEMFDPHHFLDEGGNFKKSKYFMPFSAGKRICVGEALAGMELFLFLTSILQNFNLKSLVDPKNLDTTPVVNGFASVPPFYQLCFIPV
The next data set deals with Cytochrome P450 3A4 (Homo sapiens, UniProt P08684). In words: Inhibition of human CYP3A4 expressed in yeast microsomal membranes using dibenzylfluorescein as substrate measured after 10 mins by fluorescence assay. The format is ADME, cell membranes, Microsomal Membrane.
Chain of Cytochrome P450 3A4 (P08684 whole entry): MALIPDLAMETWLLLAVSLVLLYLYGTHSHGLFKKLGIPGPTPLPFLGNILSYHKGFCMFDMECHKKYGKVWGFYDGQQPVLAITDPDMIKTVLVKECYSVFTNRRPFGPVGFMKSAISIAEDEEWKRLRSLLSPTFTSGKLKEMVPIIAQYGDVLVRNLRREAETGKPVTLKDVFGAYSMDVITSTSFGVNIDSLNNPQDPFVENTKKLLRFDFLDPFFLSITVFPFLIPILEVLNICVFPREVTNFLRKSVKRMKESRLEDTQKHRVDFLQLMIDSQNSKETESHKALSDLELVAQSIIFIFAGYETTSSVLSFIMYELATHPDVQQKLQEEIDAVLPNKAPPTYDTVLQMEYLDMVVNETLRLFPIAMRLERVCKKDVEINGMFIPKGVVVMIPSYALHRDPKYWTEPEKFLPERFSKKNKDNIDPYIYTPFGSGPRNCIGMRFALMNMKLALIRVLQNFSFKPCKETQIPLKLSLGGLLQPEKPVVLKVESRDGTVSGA
The species named for data set [1] is Homo sapiens. The data set can be described thus: Selectivity ratio of IC50 for human CYP1A2 expressed in yeast microsomal membranes to IC50 for human CYP1A1 expressed in yeast microsomal membranes. In kind it is cell membranes.
The target of data set [2] is T1, Cytochrome P450 1B1 (Homo sapiens, UniProt Q16678).
T1 sequence (Q16678 whole entry): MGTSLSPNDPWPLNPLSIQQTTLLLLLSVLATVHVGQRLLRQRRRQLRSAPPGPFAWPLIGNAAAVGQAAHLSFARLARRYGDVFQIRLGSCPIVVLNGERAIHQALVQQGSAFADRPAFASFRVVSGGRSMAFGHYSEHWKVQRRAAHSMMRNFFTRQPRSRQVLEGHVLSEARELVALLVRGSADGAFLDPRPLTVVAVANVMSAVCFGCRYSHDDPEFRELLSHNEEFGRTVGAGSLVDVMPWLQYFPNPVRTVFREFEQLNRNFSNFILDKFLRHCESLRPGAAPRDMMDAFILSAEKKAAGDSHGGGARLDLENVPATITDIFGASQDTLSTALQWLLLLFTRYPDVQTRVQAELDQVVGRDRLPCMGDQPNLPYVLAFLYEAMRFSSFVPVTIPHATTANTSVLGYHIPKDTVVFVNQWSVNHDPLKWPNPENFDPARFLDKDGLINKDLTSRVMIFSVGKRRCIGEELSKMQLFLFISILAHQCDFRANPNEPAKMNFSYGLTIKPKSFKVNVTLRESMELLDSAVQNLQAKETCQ
In words: Inhibition of human CYP1B1 expressed in yeast microsomal membranes using 7-ethoxyresorufin as substrate measured after 10 mins by fluorescence assay. The format is cell membranes.

For data set [3], the target named is T2, Cytochrome P450 1A2 (Homo sapiens, UniProt P05177).
T2 sequence (P05177 whole entry): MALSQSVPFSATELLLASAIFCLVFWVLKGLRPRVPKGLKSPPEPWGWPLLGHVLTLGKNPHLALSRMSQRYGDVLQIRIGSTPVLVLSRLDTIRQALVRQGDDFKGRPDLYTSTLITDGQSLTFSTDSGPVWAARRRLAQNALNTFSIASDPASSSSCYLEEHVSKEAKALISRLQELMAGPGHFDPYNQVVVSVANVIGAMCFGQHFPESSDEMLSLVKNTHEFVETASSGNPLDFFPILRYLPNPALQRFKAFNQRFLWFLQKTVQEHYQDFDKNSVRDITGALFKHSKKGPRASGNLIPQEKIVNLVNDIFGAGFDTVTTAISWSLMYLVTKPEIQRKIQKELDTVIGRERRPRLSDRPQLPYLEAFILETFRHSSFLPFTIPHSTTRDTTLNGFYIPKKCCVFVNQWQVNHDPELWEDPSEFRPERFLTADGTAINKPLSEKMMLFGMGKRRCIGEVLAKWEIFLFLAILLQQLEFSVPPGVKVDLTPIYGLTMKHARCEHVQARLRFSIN
The data set can be described thus: Inhibition of recombinant human CYP1A2 expressed in HEK293 cells using 3-cyano-7-ethoxycoumarin as substrate pretreated for 30 mins followed by substrate addition measured for 60 mins by fluorescence assay. In kind it is ADME.

The target in data set [4] is T3, Cytochrome P450 2C19 (Homo sapiens, UniProt P33261). In words: Inhibition of recombinant human CYP2C19 expressed in HEK293 cells using 3-cyano-7-ethoxycoumarin as substrate pretreated for 30 mins followed by substrate addition measured for 60 mins by fluorescence assay. The format is ADME.
T3 sequence (P33261 whole entry): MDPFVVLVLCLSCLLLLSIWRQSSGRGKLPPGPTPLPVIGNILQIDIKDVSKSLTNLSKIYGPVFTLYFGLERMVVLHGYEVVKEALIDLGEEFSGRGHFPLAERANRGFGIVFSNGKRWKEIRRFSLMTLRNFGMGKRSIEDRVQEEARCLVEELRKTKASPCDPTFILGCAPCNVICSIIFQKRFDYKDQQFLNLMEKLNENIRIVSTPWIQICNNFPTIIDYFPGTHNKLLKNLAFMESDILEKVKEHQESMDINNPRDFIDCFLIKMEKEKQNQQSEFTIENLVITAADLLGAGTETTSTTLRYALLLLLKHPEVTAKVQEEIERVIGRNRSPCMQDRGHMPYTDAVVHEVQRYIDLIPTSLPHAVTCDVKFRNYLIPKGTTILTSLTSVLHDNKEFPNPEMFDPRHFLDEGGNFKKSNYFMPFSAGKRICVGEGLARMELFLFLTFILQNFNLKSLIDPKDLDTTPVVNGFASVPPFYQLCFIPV
Data set [5] deals with T4, Cytochrome P450 1A1 (Homo sapiens, UniProt P04798).
T4 sequence (P04798 whole entry): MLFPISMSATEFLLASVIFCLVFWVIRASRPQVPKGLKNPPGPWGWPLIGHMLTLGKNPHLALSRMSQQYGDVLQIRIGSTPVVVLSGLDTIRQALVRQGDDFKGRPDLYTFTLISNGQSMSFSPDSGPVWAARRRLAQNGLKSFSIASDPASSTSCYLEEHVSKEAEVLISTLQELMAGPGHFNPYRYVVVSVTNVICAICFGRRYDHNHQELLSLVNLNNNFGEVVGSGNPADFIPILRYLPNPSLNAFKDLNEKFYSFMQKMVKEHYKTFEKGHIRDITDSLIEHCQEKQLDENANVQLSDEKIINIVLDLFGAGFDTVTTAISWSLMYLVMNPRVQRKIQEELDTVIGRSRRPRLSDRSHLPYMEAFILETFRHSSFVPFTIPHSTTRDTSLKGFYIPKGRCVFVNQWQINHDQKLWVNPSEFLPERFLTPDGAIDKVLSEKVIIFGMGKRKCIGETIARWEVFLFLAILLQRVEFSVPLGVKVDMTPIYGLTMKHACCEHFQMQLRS
The data set can be described thus: Inhibition of human CYP1A1 expressed in yeast cells. The format is cell-based.

Data set [6] addresses T3, Cytochrome P450 2C19. The data set can be described thus: Inhibition of human CYP2C19 expressed in yeast microsomal membranes using 3-cyano-7-ethoxycoumarin as substrate measured after 10 mins by fluorescence assay. In kind it is ADME, cell membranes, Microsomal Membrane.
The target in data set [7] is T4, Cytochrome P450 1A1. The data set can be described thus: Time-dependent inhibition of recombinant human CYP1A1 expressed in HEK293 cells using 7-ethoxyresorufin as substrate.
Data set [8] concerns the target T1, Cytochrome P450 1B1. In words: Inhibition of recombinant human CYP1B1 expressed in HEK293 cells using 7-ethoxyresorufin as substrate pretreated for 30 mins followed by substrate addition measured for 60 mins by fluorescence assay. In kind it is cell-based.
Data set [9] is filed under the species Homo sapiens. The data set can be described thus: Selectivity ratio of IC50 for recombinant human CYP1A2 expressed in HEK293 cells to IC50 for recombinant human CYP1A1 expressed in HEK293 cells. The format is cell-based.
For data set [10], the target named is T2, Cytochrome P450 1A2. In words: Inhibition of human CYP1A2 expressed in yeast microsomal membranes using 3-cyano-7-ethoxycoumarin as substrate measured after 10 mins by fluorescence assay. In kind it is ADME, cell membranes, Microsomal Membrane.
Another data set addresses T5, Cytochrome P450 2B6 (Homo sapiens, UniProt P20813).
T5 sequence (P20813 whole entry): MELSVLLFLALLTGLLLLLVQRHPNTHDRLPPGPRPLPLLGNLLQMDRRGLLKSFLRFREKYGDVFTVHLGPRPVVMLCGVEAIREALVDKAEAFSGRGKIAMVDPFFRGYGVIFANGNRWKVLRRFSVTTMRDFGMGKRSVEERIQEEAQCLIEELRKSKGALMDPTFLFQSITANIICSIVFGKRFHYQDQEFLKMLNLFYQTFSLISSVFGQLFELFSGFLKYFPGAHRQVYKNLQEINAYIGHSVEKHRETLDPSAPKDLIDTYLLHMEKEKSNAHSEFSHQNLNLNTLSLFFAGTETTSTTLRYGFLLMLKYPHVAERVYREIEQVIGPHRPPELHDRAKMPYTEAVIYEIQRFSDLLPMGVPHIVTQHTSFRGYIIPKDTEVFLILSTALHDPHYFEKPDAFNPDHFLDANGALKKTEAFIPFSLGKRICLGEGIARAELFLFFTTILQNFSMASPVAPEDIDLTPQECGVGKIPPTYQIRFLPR
In words: Inhibition of human CYP2B6 expressed in yeast cells. In kind it is ADME, cell-based.

As for `COc1cc(/C=C/C(=O)c2ccncc2)cc(OC)c1OC`, the IC50 against Cytochrome P450 2C9 was greater than 20 µM; against Cytochrome P450 3A4, greater than 20 µM; on Cytochrome P450 1B1 [2] it was 5.21 µM; on Cytochrome P450 1A2 [3], 1.12 µM; at Cytochrome P450 2C19 [4], greater than 10 µM; at Cytochrome P450 1A1 [5] it was 0.15 µM. Further, the IC50 at Cytochrome P450 2C19 [6] was greater than 20 µM; at Cytochrome P450 1B1 [8], 8.18 µM; against Cytochrome P450 1A2 [10], 1.09 µM; against Cytochrome P450 2B6, greater than 10 µM. In addition, the Ratio IC50 was greater than 10 in the data set filed under Homo sapiens [1] and less than 10 in the data set filed under Homo sapiens [9]. On Cytochrome P450 1A1 [7], the TDI entry was “Not Active”.

A word on the IC50: it is the concentration that inhibits the measured activity by half.
